Among the data in patent publication US20090004185A1, “AMINO-SUBSTITUTED QUINAZOLINE DERIVATIVES AS INHIBITORS OF BETA-CATENIN/TCF-4 PATHWAY AND CANCER TREATMENT AGENTS” (WYETH, priority 2007, published 2009) are IC50 values, retold here.

One assay has as its system β-catenin/Tcf-4. In words: cells. The settings on record: Homo sapiens, 24 hours of incubation with compound, ratio Firefly/Renilla luciferase. Type of assay: cell-based. The essentials:
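SW480-derived lines with integrated reporters (Tcf-4-driven firefly luciferase; SV40 firefly as specificity control; SV40 Renilla for cell number/toxicity), treated 24 hours with titrated compounds, final 0.316% DMSO. Dual-luciferase read-out; firefly/Renilla ratio as % of control, duplicate plates, IC50 (nM) from curve fit.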

The next assay deals with SV40-Luc. Description: SV40-Luc control luciferase reporter assay, SV 5A8 cell line (SV40-Luc and SV40-R-Luc), control for non-specific inhibitors. Format: cell-based, human. The settings on record: Homo sapiens, SV5A8, 24 h, SV 5A8 cells derived from SW480; 24 hours of incubation with compound; ratio Firefly/Renilla luciferase. The essentials: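 SW480 cells, stably integrated reporters; SV 5A8 = SV40-firefly + SV40-Renilla control line, Tcf 33.13/Tcf 22C11 = Tcf-4-firefly + SV40-Renilla. Cpd titration, 24 h, 0.316% DMSO final. Dual-Luc/Dual-Glo read; F/R ratio (% ctrl, duplicate plates) → IC50.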
In general terms: A reporter such as luciferase makes a cellular process visible.

The mark [1] stands for this setting: SW480, 24 h, Tcf 33.13 cells derived from SW480.
Setting [2] is: Tcf22C11, 24 h, Tcf 22C11 cells derived from SW480.

Take `CC(C)c1ccc2c(NCc3ccc(NC(=O)c4ccc(F)cc4)cc3)nc(N(C)C)nc2c1` [Example 61, N-[4-({[2-(dimethylamino)-7-isopropylquinazolin-4-yl]amino}methyl)phenyl]-4-fluorobenzamide]: the results for the IC50 in the assay with β-catenin/Tcf-4 (setting [1]), with β-catenin/Tcf-4 (setting [2]) and in the assay with SV40-Luc were 327 nM, 532 nM and greater than 5060 nM, respectively.

Take `CC(C)c1ccc2c(NCc3ccc(NC(=O)c4ccc(Cl)nc4)cc3)nc(N(C)C)nc2c1` [Example 62, 6-chloro-N-[4-({[2-(dimethylamino)-7-isopropylquinazolin-4-yl]amino}methyl)phenyl]nicotinamide]: the figures for the concentration for half-maximal inhibition (IC50) with β-catenin/Tcf-4 (setting [1]), in the assay on β-catenin/Tcf-4 (setting [2]) and with SV40-Luc were 808 nM, 1110 nM and greater than 9780 nM, respectively.

With `CC(C)c1ccc2c(NCc3ccc(NC(=O)C4CCN(Cc5ccccc5)CC4)cc3)nc(N(C)C)nc2c1` [Example 63, 1-benzyl-N-[4-({[2-(dimethylamino)-7-isopropylquinazolin-4-yl]amino}methyl)phenyl]piperidine-4-carboxamide], the IC50 in the assay with β-catenin/Tcf-4 (setting [1]) was 1190 nM; with β-catenin/Tcf-4 (setting [2]), 2150 nM; with SV40-Luc, greater than 8720 nM.

Take `Cc1c(F)ccc2c(NCc3ccc(NC(=O)c4ccc(Cl)nc4)cc3)nc(N(C)C)nc12` [Example 64, 6-chloro-N-[4-({[2-(dimethylamino)-7-fluoro-8-methylquinazolin-4-yl]amino}methyl)phenyl]nicotinamide]: the half-maximal inhibitory concentration (IC50) is 8960 nM with β-catenin/Tcf-4 (setting [1]), 11100 nM in the assay with β-catenin/Tcf-4 (setting [2]) and greater than 10800 nM in the assay on SV40-Luc.

As to `CNc1nc(NCc2ccc(NC(=O)c3ccc(Cl)cc3)cc2)c2cc(-c3ccco3)cc(C)c2n1` [Example 67, 4-chloro-N-[4-({[6-(2-furyl)-8-methyl-2-(methylamino)quinazolin-4-yl]amino}methyl)phenyl]benzamide], the half-maximal inhibitory concentration (IC50) was 1450 nM in the assay with β-catenin/Tcf-4 (setting [1]), 1210 nM with β-catenin/Tcf-4 (setting [2]) and greater than 10000 nM in the assay on SV40-Luc.

As for `CN(C)c1nc(NCc2ccc(NC(=O)c3ccc(F)cc3)cc2)c2cc(I)ccc2n1` [Example 68, N-[4-({[2-(dimethylamino)-6-iodoquinazolin-4-yl]amino}methyl)phenyl]-4-fluorobenzamide], the IC50 with β-catenin/Tcf-4 (setting [1]) is 400 nM; in the assay with β-catenin/Tcf-4 (setting [2]) it was 530 nM; in the assay on SV40-Luc, greater than 4620 nM.

Turning to `CN(C)CC#Cc1ccc2nc(N(C)C)nc(NCc3ccc(NC(=O)c4ccc(F)cc4)cc3)c2c1` [Example 69, N-{4-[({2-(dimethylamino)-6-[3-(dimethylamino)prop-1-yn-1-yl]quinazolin-4-yl}amino)methyl]phenyl}-4-fluorobenzamide], the IC50 with β-catenin/Tcf-4 (setting [1]) was 1940 nM; in the assay with β-catenin/Tcf-4 (setting [2]), 2010 nM; with SV40-Luc it was greater than 20100 nM.

`COC(=O)c1ccc2nc(N(C)C)nc(NCc3ccc(NC(=O)c4ccc(F)cc4)cc3)c2c1` [Example 70, methyl 2-(dimethylamino)-4-({4-[(4-fluorobenzoyl)amino]benzyl}amino)quinazoline-6-carboxylate]: the results for the IC50 in the assay on β-catenin/Tcf-4 (setting [1]), with β-catenin/Tcf-4 (setting [2]) and in the assay with SV40-Luc were 1480 nM, 2140 nM and greater than 10600 nM, respectively.

As for `CN(C)c1nc(NCc2ccc(NC(=O)c3ccc(F)cc3)cc2)c2cc(CO)ccc2n1` [Example 71, N-[4-({[2-(dimethylamino)-6-(hydroxymethyl)quinazolin-4-yl]amino}methyl)phenyl]-4-fluorobenzamide], the IC50 in the assay with β-catenin/Tcf-4 (setting [1]) is 2340 nM; in the assay on β-catenin/Tcf-4 (setting [2]) it was 2990 nM; in the assay with SV40-Luc it was greater than 11200 nM.

As for `CN(C)c1nc(NCc2ccc(NC(=O)c3ccc(Cl)nc3)cc2)c2cc(I)ccc2n1` [Example 72, 6-chloro-N-[4-({[2-(dimethylamino)-6-iodoquinazolin-4-yl]amino}methyl)phenyl]nicotinamide], the IC50 with β-catenin/Tcf-4 (setting [1]) was 456 nM; in the assay on β-catenin/Tcf-4 (setting [2]) it was 534 nM; in the assay with SV40-Luc, greater than 4470 nM.

`C=Cc1ccc2nc(N(C)C)nc(NCc3ccc(NC(=O)c4ccc(Cl)nc4)cc3)c2c1` [Example 73, 6-chloro-N-[4-({[2-(dimethylamino)-6-vinylquinazolin-4-yl]amino}methyl)phenyl]nicotinamide]: the values for the IC50 with β-catenin/Tcf-4 (setting [1]), in the assay with β-catenin/Tcf-4 (setting [2]) and in the assay on SV40-Luc were 194 nM, 223 nM and greater than 681 nM, respectively.

One may read the IC50 as the concentration needed to halve the response being measured.
